Source: patent US11384385B2, “Method for predicting therapeutic effects of irinotecan, and kit for same” (Yamaguchi University, priority 2017, dated 2022)
Read-outs that look alike come from different tables or passages of the source.

Legend:
[1] = system: colorectal cancer (stage IV); test: Therapeutic effect of irinotecan on cancer evaluated by RECIST (CR and PR = therapeutic effect), by rs1980576 genotype; type: in vivo, human; settings: for therapeutic effect observed (CR+PR): rs1980576 wild-type homozygote (A/A)
Procedure: Analysis objects were 140 cases among 155 Japanese colorectal cancer (stage IV) cases who were administered with irinotecan excluding cases who were administered with a reduced amount of irinotecan, UGT1A1*6 (homo), UGT1A1*28 (homo), and their compound heterogeneous cases and determined for the therapeutic effect and 66 subpopulation cases (FOLFIRI cases with a unified regimen) among the 140 cases. FOLFIRI is one of standard treatments for colorectal cancer and using irinotecan simultaneous with treatment with a combination of fluorouracil and 1-leucovorin. The 140 cases were Japanese colorectal cancer patients treated with a regimen including irinotecan. The regimen in this Example includes combination therapy, in addition to irinotecan, with FOLFIRI using fluorouracil and 1-leucovorin, […] using capecitabine, IRIS using S-1, or an anti-EGFR antibody agent ([…], Cetuximab, or Panitumumab). Comprehensive analysis (WES analysis) of the prepared genome DNA was performed by the same method as described in WO2016/132736 (PCT/JP2016/000793). That is, three types of cases: cases (n=5) as a control group in which UGT1A genetic polymorphisms (seven positions of UGT1A1*6, *27, and *28, UGT1A7 (387T>G and 622T>C), UGT1A9*1b, and UGT1A1*60) were all homozygotes being low in side effect risk and no side effect from irinotecan were observed; cases (n=5) as a case group in which although the UGT1A genetic polymorphisms were the same as those in the control group, side effects (Grade 3, entire course) were observed; and cases (n=5) in which any of the UGT1A genetic polymorphisms was a heterozygote and a side effect was observed from the first administration of irinotecan (Grade 4), were established, and the case and control groups were analyzed. […] The genetic polymorphisms and the side effect frequency and the response rates were statistically analyzed using a Cochran-Armitage trend test. […] Accordingly, 11 single nucleotide polymorphisms in total: the above-mentioned single nucleotide polymorphisms a) to f) and single nucleotide polymorphisms g) UGT1A1*6, h) UGT1A1*60, i) UGT1A7 (387T>G), j) UGT1A7 (622T>C), and k) UGT1A9*1b known to be involved in side effects from irinotecan, were analyzed for a relationship with the therapeutic effects of irinotecan on cancer. […] CR and PR were determined to have a therapeutic effect; and SD and PD were determined to have no therapeutic effect. […] FIGS. 1 and 2 show the analysis results of 140 cases determined for therapeutic effects, and FIGS. 3 and 4 show the analysis results of 66 subpopulation cases among the 140 cases. […] In addition, in FIGS. 1 to 4, “Odds ratio” is calculated as an odds ratio of the therapeutic effects (efficacy) of irinotecan on cancer in a wild-type homozygote or a mutant-type homozygote by Fisher's exact test.

[2] = system: cancer; settings: general response rate; cited from earlier work
[3] = FIG. 5, Table 2 of WO2016/132736, cited from earlier work
[4] = rs1980576 mutant-type homozygote (G/G)

SMILES: CCc1c2c(nc3ccc(OC(=O)N4CCC(N5CCCCC5)CC4)cc13)-c1cc3c(c(=O)n1C2)COC(=O)[C@]3(O)CC [irinotecan, (S)-4,11-diethyl-3,4,12,14-tetrahydro-4-hydroxy-3,14-dioxo-1H-pyrano[3′,4′:6,7]indolizino[1,2-b]quinolin-9-yl ester, CPT-11,1,4′-bipiperidine-1′-carboxylic acid]
- possibility of a therapeutic effect of irinotecan on cancer ([1]; rs1980576 heterozygote (A/G)): high
- therapeutic effect [1, 4]: low
- therapeutic effect observed (CR+PR) ([1]; 66 FOLFIRI cases only (FIG. 3)): 43%
- therapeutic effect observed (CR+PR) ([1]; 140 Japanese colorectal cancer cases, regimen including irinotecan (FIG. 1)): 38%
- response rate of irinotecan generally [2]: about 32%
- risk of side effects ([3]; rs1980576 heterozygote (A/G)): low
- risk of side effects [3, 4]: high
- risk of side effects ([3]; rs1980576 wild-type homozygote (A/A)): low
